Entries after “also recorded” stand apart in the source; their conditions may differ.

The first experiment relates to brain tissue. Description: in vivo selection of brain-binding phage-displayed peptides by panning in mice. On the set-up: species or system BALB/c mice. The settings on record: phage library injected intravenously, 30 min to 1 hour circulation, brain tissue recovered, four rounds. On the procedure:
FIG. 1 provides the scheme for selection of tissue specific phage in vivo. In this example, candidate brain-binding peptides were selected by panning in BALB/c mice. In round one of selection, the phage library was injected intravenously. After thirty minutes of circulation, the mice were euthanized by carbon dioxide inhalation, perfused with 60 ml of ice cold PBS via the left ventricle, and brain tissue was recovered from the animals. The tissue was minced into small pieces and rinsed repeated in PBS, followed by homogenization in lysis buffer. The tissue homogenate was then incubated with fresh E coli cells and the phage present allowed to infect and lyse the bacteria. Phage were recovered by polyethylene glycol precipitation of the lysate. In subsequent rounds, the phage purified from brain tissues recovered in the previous round was injected intravenously, and tissue was recovered after thirty to sixty minutes of circulation. After the last round, the phages were plated on a lawn of bacteria and a number of pliage plaques were isolated and the DNA sequenced. Of these, a certain percentage represented the dominant selected clone.
To remove unbound, non-specific phage, from the parenchyma of the tissue, the screening protocol of Example 2 was modified. After intravenous administration, the phage were left in circulation for 1 hour (30 minutes in Example 2) to allow more phage clones with CNS binding affinity to reach their target. CNS tissue samples were then homogenized in TBS buffer instead of the lysis buffer which was used at this step previously. Tissue homogenates were pelleted by centrifugation and the supernatant was discarded. The pellet was washed two more times in TBS to remove unbound phage. The pellet was re-homogenized in lysis buffer and the remainder of the selection protocol was completed as described in Example 2. The following brain specific peptides were determined: […]
As for GETRAPL [Gly-Glu-Thr-Arg-Ala-Pro-Leu], the binding to brain entry was “binding to brain”.
“LFTPPVL [Leu-Phe-Thr-Pro-Pro-Val-Leu, brain specific peptide selected by in vivo phage display]”: the binding to brain entry is reported as “specific for binding to the brain”.
Same read-out and setting: the result for “LPHQNNR [Leu-Pro-His-Gln-Asn-Asn-Arg, brain specific peptide selected by in vivo phage display]” reads “specific for binding to the brain”.
Consider “LPLTPLP [Leu-Pro-Leu-Thr-Pro-Leu-Pro, brain specific peptide selected by in vivo phage display]”, for which the binding to brain entry was “specific for binding to the brain”.
On to “QPTASLT [Gln-Pro-Thr-Ala-Ser-Leu-Thr, brain specific peptide selected by in vivo phage display]”, for which the binding to brain entry is on record as “specific for binding to the brain”.
Turning to “SSHTISF [Ser-Ser-His-Thr-Ile-Ser-Phe, brain specific peptide selected by in vivo phage display]”, the binding to brain result is given as “specific for binding to the brain”.

Another experiment deals with skeletal muscle.
Test: not given
The settings on record: as described in U.S. Pat. No. 6,329,501; cited from earlier work.
With GETRAPL [Gly-Glu-Thr-Arg-Ala-Pro-Leu], the “binding to skeletal muscle” value is recorded as “capable of binding to skeletal muscle; also recorded: also binds skeletal muscle”.

The values are drawn from patent US6399575B1, “Methods and compositions for targeting compounds to the central nervous system” (Auburn University, priority 1998, dated 2002).
